Source: ChEMBL document CHEMBL5465560, “Selectivity Literature for EUbOPEN Chemogenomic Library” (2024)

Tests used:
Ephrin type-A receptor 4 = Ephrin type-A receptor 4 (Homo sapiens, UniProt P54764); experiment: Selectivity interaction (KinomeScan (DiscoverX)) EUB0000229b EPHA4; settings: at 10 µM
[1] = molecular target: Serine/threonine-protein kinase Nek7 (Homo sapiens) (UniProt Q8TDX7); experiment: Selectivity interaction (KinomeScan (DiscoverX)) EUB0000092b NEK7; settings: at 10 µM
[2] = molecular target: Serine/threonine-protein kinase B-raf (Homo sapiens) (UniProt P15056); experiment: (§1) Selectivity interaction (ProQinase) EUB0000171b BRAF
[3] = system: Serine/threonine-protein kinase B-raf (Homo sapiens), P15056 [V600E]; experiment: as §1
[4] = molecular target: Ribosomal protein S6 kinase alpha-5 (Homo sapiens) (UniProt O75582); experiment: Selectivity interaction (KinomeScan (DiscoverX)) EUB0001868a RPS6KA5; settings: at 1 µM
[5] = molecular target: T1, Tyrosine-protein kinase JAK3 (Homo sapiens, UniProt P52333); experiment: Selectivity interaction (Enyzmatic assay) EUB0000601a JAK3
T1 sequence (P52333 whole entry): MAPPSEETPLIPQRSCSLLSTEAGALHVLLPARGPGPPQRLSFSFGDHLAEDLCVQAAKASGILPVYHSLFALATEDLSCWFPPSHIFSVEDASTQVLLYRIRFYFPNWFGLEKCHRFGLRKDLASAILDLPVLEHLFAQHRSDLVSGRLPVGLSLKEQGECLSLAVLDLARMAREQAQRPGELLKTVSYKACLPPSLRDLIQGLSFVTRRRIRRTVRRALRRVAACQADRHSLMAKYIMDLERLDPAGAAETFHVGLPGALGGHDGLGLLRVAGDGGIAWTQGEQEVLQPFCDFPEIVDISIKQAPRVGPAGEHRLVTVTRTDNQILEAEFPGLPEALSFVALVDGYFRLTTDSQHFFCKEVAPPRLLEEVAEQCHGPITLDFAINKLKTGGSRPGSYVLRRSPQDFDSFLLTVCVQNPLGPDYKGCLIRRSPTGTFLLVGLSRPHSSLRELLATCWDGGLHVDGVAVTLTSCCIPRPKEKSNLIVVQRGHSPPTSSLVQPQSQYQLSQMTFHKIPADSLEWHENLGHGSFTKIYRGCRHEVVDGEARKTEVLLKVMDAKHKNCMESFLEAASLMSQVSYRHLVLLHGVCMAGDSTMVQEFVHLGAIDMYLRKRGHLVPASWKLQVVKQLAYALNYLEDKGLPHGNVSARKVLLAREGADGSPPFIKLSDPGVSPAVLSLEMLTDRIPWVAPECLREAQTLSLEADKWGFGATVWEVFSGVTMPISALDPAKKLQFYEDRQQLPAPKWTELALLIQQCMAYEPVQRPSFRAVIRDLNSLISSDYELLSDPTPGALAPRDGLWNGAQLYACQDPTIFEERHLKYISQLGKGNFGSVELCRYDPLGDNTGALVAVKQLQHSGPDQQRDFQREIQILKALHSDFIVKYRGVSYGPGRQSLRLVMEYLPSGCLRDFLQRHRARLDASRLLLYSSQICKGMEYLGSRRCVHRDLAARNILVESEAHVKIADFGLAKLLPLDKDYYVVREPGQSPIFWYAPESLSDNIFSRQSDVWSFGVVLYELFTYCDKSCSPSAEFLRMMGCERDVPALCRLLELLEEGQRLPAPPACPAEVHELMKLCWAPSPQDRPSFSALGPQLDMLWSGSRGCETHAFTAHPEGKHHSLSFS

[6] = molecular target: High affinity nerve growth factor receptor (Homo sapiens, UniProt P04629); experiment: Selectivity interaction (KinomeScan (DiscoverX)) EUB0000607a NTRK1; settings: at 10 µM
[7] = molecular target: T2, Serine/threonine-protein kinase DCLK2 (Homo sapiens) (UniProt Q8N568); experiment: Selectivity interaction (KinomeScan (DiscoverX)) EUB0001049a DCLK2; settings: at 1 µM
T2 sequence (whole entry): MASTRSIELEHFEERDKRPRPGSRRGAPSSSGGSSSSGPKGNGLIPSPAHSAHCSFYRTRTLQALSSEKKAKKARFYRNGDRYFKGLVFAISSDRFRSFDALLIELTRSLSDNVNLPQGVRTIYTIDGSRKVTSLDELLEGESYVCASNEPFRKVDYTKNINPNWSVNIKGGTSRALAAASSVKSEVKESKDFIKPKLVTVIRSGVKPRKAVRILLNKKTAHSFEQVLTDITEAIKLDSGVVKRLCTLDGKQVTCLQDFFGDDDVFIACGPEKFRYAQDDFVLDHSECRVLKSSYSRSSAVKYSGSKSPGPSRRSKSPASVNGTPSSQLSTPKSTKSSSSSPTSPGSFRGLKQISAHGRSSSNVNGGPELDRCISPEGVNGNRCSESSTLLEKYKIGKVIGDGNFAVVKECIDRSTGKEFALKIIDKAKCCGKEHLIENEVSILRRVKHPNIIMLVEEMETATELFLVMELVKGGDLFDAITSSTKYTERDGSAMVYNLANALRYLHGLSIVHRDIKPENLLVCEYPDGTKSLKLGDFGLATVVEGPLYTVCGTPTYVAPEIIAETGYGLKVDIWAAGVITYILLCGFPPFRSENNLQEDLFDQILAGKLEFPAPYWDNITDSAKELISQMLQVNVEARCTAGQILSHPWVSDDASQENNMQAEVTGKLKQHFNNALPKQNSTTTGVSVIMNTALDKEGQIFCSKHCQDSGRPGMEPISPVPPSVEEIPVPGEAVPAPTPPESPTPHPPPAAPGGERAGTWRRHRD

[8] = molecular target: Voltage-dependent L-type calcium channel subunit alpha-1C (Homo sapiens, UniProt Q13936); experiment: Selectivity interaction (Panel of non-epigenetic targets (kinases, GPCRs, ion channels, and transporters, Eurofins) ) EUB0000271b CACNA1C; settings: at 1 µM
[9] = molecular target: Myosin-IIIa (Homo sapiens) (UniProt Q8NEV4); experiment: Selectivity interaction (KinomeScan (DiscoverX)) EUB0000695a MYO3A; settings: at 100 nM
[10] = molecular target: T3, Serine/threonine-protein kinase Nek2 (Homo sapiens) (UniProt P51955); experiment: Selectivity interaction (Ambit KINOMEscan and KiNATiv profiling in Jurkat cells) EUB0000090b NEK2; type: cell-based; settings: at 1 µM
T3 sequence (whole entry): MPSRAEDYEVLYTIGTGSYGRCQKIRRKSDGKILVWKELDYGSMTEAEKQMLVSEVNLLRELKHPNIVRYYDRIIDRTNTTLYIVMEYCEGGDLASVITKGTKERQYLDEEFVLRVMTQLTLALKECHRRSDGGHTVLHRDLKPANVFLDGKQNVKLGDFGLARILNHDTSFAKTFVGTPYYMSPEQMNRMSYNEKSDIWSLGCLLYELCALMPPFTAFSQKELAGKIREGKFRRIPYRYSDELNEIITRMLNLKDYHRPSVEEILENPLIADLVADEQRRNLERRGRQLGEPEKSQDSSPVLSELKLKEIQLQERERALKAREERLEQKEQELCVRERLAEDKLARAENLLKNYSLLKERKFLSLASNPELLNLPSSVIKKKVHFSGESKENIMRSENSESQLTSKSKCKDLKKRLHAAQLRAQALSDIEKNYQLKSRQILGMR

Chain of Serine/threonine-protein kinase B-raf (Homo sapiens), P15056 [V600E] (P15056 whole entry V600E): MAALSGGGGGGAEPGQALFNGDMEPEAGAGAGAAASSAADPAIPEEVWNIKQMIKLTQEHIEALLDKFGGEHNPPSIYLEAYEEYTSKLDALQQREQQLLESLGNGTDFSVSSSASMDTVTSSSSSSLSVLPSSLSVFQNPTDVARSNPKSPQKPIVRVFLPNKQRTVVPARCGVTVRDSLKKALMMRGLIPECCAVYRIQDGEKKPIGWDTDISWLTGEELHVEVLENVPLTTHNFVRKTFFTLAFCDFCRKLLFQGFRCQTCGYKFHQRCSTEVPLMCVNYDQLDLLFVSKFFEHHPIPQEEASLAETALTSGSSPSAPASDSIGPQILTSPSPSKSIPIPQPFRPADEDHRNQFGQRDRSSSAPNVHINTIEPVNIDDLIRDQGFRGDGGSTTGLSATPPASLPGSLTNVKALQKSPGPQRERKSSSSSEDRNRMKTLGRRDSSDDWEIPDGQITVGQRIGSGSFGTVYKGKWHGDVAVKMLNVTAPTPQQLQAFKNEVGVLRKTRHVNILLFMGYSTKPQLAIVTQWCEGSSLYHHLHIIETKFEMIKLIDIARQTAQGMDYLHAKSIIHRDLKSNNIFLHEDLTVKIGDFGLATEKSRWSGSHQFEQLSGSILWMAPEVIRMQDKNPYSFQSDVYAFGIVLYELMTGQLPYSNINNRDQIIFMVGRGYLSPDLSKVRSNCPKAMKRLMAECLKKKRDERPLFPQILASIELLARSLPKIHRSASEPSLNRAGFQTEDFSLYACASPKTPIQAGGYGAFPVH
Chain of Serine/threonine-protein kinase B-raf (Homo sapiens) (P15056 whole entry): as the sequence (P15056 whole entry V600E) above, with E600V counted along it
Chain of High affinity nerve growth factor receptor (P04629 33-796 limits assumed): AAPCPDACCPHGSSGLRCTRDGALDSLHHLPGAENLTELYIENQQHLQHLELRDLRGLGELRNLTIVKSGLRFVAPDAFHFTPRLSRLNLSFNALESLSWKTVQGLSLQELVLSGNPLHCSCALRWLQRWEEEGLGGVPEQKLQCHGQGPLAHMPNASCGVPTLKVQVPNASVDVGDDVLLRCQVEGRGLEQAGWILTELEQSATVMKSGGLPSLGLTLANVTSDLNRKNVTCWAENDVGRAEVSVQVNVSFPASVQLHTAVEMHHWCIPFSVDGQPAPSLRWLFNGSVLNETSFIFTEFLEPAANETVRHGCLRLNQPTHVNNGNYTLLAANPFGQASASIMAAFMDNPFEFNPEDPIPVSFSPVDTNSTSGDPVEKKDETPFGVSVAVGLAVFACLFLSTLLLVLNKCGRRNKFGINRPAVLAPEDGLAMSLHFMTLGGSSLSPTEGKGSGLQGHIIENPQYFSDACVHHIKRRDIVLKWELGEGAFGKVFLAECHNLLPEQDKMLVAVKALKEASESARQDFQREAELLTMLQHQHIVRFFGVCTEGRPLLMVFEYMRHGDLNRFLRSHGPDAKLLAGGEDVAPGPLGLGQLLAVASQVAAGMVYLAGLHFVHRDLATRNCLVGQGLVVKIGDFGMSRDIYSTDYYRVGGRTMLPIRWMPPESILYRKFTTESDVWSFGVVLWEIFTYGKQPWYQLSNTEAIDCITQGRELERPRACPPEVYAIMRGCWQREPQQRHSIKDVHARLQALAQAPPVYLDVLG
Chain of Ribosomal protein S6 kinase alpha-5 (Homo sapiens) (O75582 whole entry, looked up): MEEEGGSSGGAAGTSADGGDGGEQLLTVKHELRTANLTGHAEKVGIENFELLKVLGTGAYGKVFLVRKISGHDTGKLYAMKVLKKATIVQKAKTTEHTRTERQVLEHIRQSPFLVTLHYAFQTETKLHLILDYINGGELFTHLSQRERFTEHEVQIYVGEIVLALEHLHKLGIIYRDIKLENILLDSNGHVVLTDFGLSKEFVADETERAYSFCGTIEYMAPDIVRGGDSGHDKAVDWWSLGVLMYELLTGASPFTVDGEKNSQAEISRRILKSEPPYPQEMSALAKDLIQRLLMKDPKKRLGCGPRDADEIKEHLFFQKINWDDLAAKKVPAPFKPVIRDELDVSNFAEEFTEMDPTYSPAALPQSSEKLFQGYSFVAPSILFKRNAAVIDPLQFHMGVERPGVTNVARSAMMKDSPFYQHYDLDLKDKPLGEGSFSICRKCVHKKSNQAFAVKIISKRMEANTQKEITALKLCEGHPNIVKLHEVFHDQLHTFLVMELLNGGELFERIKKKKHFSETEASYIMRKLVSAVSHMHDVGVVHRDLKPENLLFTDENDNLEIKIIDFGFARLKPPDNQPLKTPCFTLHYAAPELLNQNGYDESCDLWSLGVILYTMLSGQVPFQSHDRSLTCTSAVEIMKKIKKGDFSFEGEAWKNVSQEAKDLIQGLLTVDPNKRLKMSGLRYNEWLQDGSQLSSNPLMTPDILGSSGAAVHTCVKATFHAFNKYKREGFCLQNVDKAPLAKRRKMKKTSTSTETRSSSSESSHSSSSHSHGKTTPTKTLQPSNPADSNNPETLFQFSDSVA
Chain of Myosin-IIIa (Homo sapiens) (Q8NEV4 whole entry): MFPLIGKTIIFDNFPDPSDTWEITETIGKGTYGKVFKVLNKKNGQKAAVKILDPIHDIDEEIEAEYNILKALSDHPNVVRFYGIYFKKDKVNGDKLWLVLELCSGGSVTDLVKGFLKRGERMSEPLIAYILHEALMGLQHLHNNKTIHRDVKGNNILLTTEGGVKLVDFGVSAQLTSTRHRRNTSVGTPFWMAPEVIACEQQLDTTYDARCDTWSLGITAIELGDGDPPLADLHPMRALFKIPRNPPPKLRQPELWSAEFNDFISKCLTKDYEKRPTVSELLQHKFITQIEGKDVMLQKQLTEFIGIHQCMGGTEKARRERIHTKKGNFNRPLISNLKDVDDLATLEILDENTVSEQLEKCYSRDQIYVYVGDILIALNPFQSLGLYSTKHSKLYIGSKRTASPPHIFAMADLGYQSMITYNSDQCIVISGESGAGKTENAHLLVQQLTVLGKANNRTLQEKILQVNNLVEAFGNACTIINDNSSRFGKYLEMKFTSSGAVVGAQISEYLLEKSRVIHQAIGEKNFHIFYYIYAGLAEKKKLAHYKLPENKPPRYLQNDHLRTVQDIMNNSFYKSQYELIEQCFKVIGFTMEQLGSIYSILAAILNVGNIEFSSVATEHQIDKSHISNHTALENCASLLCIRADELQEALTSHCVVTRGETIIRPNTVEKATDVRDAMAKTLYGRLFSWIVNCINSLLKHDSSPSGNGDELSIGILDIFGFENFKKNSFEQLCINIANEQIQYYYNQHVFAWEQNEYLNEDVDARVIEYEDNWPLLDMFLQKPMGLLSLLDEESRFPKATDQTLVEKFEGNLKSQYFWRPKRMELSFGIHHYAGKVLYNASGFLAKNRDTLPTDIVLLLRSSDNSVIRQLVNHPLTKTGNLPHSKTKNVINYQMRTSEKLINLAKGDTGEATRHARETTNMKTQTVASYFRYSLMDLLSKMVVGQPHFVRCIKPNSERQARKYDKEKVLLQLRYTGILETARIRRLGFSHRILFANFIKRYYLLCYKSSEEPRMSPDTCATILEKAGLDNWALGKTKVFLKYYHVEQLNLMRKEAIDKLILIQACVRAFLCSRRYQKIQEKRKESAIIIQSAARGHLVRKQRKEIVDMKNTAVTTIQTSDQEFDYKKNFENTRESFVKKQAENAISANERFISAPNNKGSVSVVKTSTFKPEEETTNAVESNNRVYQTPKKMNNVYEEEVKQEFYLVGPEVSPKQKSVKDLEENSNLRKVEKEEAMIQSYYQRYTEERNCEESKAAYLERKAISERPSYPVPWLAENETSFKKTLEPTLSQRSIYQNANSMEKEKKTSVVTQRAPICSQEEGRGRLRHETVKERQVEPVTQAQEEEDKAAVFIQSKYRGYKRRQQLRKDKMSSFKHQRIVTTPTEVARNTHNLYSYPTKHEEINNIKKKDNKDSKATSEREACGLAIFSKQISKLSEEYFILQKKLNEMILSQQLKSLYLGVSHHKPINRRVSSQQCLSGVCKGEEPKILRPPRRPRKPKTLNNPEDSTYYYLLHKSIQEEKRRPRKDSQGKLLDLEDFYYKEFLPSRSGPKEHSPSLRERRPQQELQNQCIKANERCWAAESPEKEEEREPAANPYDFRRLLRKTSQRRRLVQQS
Chain of Serine/threonine-protein kinase Nek7 (Homo sapiens) (Q8TDX7 whole entry, looked up): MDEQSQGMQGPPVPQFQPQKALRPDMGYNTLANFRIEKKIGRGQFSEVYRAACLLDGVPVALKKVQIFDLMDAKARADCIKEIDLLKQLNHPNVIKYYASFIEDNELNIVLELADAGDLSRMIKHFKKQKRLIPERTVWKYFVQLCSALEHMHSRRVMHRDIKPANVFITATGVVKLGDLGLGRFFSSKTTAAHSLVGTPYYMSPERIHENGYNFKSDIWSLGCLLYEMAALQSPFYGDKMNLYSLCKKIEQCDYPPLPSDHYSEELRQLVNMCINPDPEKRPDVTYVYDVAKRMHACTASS

With `COc1cc(N(C)c2ccnc3ccc(C(F)(F)F)cc23)cc(OC)c1OC` the % binding (Ephrin type-A receptor 4) was 100%.
Work on `CCC(=O)N1CCN(c2ccc(-n3c(=O)ccc4cnc5ccc(-c6cnc7ccccc7c6)cc5c43)cc2C(F)(F)F)CC1` yielded a % of control [1] of 90%.
`C=CC(=O)Nc1cccc(C(=O)Nc2ccc(Nc3cc(-c4[nH]c(SC)nc4C)ccn3)cc2)c1` showed a % of control ([2]; at 1 µM) of 96%, a % of control ([2]; at 5 µM) of 82% and a % of control ([3]; at 1 µM) of 110%. For the same molecule, the % of control ([3]; at 5 µM) was 113%.
Molecule `Cc1cc(-c2ccnc(Nc3cnn(C)c3)n2)ccc1CNC(=O)N1CC(OC(C)C)C1` has a % of control [4] of 42%.
`CCc1cc(Nc2nccc(-c3c(-c4ccc(OC)c(C(=O)Nc5c(F)cccc5F)c4)nc4ccccn34)n2)c(OC)cc1N1CCC(N2CCN(S(C)(=O)=O)CC2)CC1` gave an IC50 [5] greater than 10 µM.
Molecule `CNC(=O)Nc1ccc(-c2nc(N3CC4CCC(C3)O4)c3cnn(C4CCC5(CC4)OCCO5)c3n2)cc1` has a % of control [6] of 100%.
Work on `COc1cc(Nc2nc(C)cc(-c3cnn4nc(OC)ccc34)n2)cc(C(F)(F)F)c1` yielded a % of control [7] of 84%.
With `Cc1cc(C)cc([C@@H]2c3cc(C)ccc3NC(=O)CN2C(=O)c2ccc(Br)s2)c1` the “% of inhibition” value [8] was -8%.
`Cc1cc(F)c(C(=O)Nc2cccc(-c3nncn3C(C)C)n2)cc1-n1cnc(C2CC2)c1` was tested, and the % of control [9] was 100%.
`CN(C)C/C=C/C(=O)Nc1ccc(C(=O)N2CCCC(Nc3ncc(Cl)c(-c4c[nH]c5ccccc45)n3)C2)cc1` (stereo not drawn) showed a % of control [10] of 97%.
